Laboratory results as given in ChEMBL document CHEMBL1150555, “Anti-histaminic activity of bromopyrrole alkaloids isolated from Caribbean Agelas sponges” (Bioorg Med Chem Lett, 1997).
Activity calls are given as the source filed them. No cut-off for these calls is given here.

How the values were obtained:
Agelas dispar = assay: Distribution in Carribean Agelas dispar was determined and expressed as % dry weight; type: functional
Cavia porcellus [1] = organism: Cavia porcellus; assay: Apparent affinity towards histamine receptor was determined and expressed as pD2
agelas longissima = assay: Distribution in Carribean Agelas longissima was determined and expressed as % dry weight; type: functional
Agelas clathrodes = assay: Distribution in Carribean Agelas clathrodes was determined and expressed as % dry weight; type: functional
Agelas conifera = assay: Distribution in Carribean Agelas conifera was determined and expressed as % dry weight; type: functional
Cavia porcellus [2] = organism: Cavia porcellus; assay: Apparent affinity towards histamine receptor was determined and expressed as pD2; IA = Inactive

pD2 (Cavia porcellus [1]) | pD2 (Cavia porcellus [2]) | Structure (SMILES) | Dry weight (Agelas dispar) | Dry weight (agelas longissima) | Dry weight (Agelas clathrodes) | Dry weight (Agelas conifera)
5.52 | – | NC1=N/C(=C\CCNC(=O)c2cc(Br)c(Br)[nH]2)C(=O)N1 | 3.5% | 1.1% | 3.2% | 0.8%
– | inactive | C[N+]1=CNC[C@]1(C)CC(NC(=O)c1cc(Br)c[nH]1)C(=O)[O-] (stereo not given in full) | 0% | 0% | 7.2% | 0%
4.48 | – | NC1=N/C(=C\C(O)CNC(=O)c2cc(Br)c(Br)[nH]2)C(=O)N1 (stereo not given) | 3.5% | 1.1% | 3.2% | 0.8%
4.34 | – | NC1=N/C(=C\C(O)CNC(=O)c2cc(Br)c[nH]2)C(=O)N1 (stereo not given) | 0.2% | 3.3% | 0.5% | 3.5%
5.33 | – | NC1=N/C(=C\CCNC(=O)c2cc(Br)c[nH]2)C(=O)N1 | 0.2% | 3.3% | 0.5% | 3.5%
4.02 | – | Nc1ncc(/C=C/CNC(=O)c2cc(Br)c(Br)[nH]2)[nH]1 | 4.2% | 4.1% | 2.1% | 2.1%
4.24 | – | Nc1nc([C@H]2[C@H](CNC(=O)c3cc(Br)c[nH]3)[C@@H](CNC(=O)c3cc(Br)c[nH]3)[C@@H]2c2c[nH]c(N)n2)c[nH]1 | 15.5% | 2.5% | 15.1% | 8.8%
